# Assay results taken from US20240226234A1, “WNT5A PEPTIDES FOR THE TREATMENT OF ACUTE M[…]” (W[…], priority 2021, published 2024).
# No end group written: not given here. *: point of attachment. For = O=C*
# How the values were obtained:
# K562 cells [1] = experiment: Cell cycle assay, K562 cells; format: cell-based, human; settings: 72 h
# Experimental: (§1) A panel of human myeloid leukemia cell lines (HL60, K562, KG1a, THP1 and U937) and HS-5 mesenchymal stromal cells lineage were cultured in Roswell Park Memorial Institute medium-1640 (RPMI; Sigma) containing 10% Fetal Bovine Serum (Gibco), glutamine (2 mM; Sigma), penicillin (100 μg/mL; Sigma), streptomycin (100 μg/mL; Sigma), and amphotericin B (0.25 μg/mL; Gibco). The cells were maintained in a humidified atmosphere at 37° C. and 5% CO2 and the experiments were performed when they reached exponential growth. For the assays, cells were seeded on a 24-well plate and treated or not with Foxy-5 for 72 hours.
# Cells treated with Foxy or with vehicle were collected and fixed, at least, 24 hours in 70% ethanol. DNA was stained with a buffer containing iodide propidium (20 μg/mL; Sigma) and RNase A (10 μg/mL; Sigma). Cell fluorescence was detected with a FACSCalibur flow cytometer (BD). The proportions of cells in the cell cycle phases were analyzed by Modifit (Verify Software House Inc), according to DNA distributions.
# As we observed a reduction in the leukemic proliferation after Foxy-5 treatment, we also analyzed the cell cycle phases. Leukemia cell lines were treated for 72 hours with Foxy-5, at doses of 50 μM and 100 μM, or vehicle, stained with the Piper buffer containing RNAse and iodeto propidium and then analyzed by flow cytometry.
# K562 cells [2] = experiment: Transwell chemotaxis assay toward CXCL12, K562 cells; format: cell-based, human; settings: K562, Foxy-5 100 μM 72 h pretreatment, CXCL12 100 ng/mL, 24 h
# Experimental: Leukemic cell lines, pretreated or not with Foxy-5 (72 hours of stimulation) were tested for chemotaxis in Transwell-based assays for Chemotaxis (6.5 mm diameter, 8 μm pore size; Corning). Polycarbonate membranes were incubated with poly-L-lysine (1 mg/mL) for 1 hour at 37° C. followed by saline buffer washing. Briefly, cells were collected, washed with media containing bovine serum albumin (0.1% BSA; Sigma), and then seeded at a density of 5×10^5 cells into the upper chamber of the transwell. The lower chamber was filled with media containing 0.5% BSA (negative control), media containing 10% FBS (positive control) and media 5 containing 0.5% BSA with CXCL12 (100 ng/ml; Peprotech) (Melo et al., 2014). Following 6 h or 24 h of incubation at 37° C., cells that migrated into the lower chamber were collected, centrifuged, resuspended in saline buffer and counted. The number of migrated cells was expressed as a percentage of the input, i.e., the cells number applied directly to the lower compartment in parallel wells. The migration of cells was normalized to 100%+/−standard deviation (SD) of triplicates (Favaro et al., 2013).
# We investigated whether restoring of WNT5A could enable the modulation CXCL12-induced chemotaxis of leukemia cells. […]
# K562 cells [3] = experiment: Autophagy assay (acridine orange), K562 cells; format: cell-based, human; settings: K562, 2D culture, 72 h
# Experimental: as §1
# Cells treated with Foxy or with vehicle were collected and acids vesicles were measured by flow cytometry following staining with Acridine Orange (0.01 mg/mL; Sigma). Acquisition of cells was performed on a FACScalibur flow cytometer (BD) and analysis was carried out using the FlowJo software 4.
# As autophagy is required for sustaining leukemia cell growth by induction of ROS production, we measured the levels of acidic granule formation by flow cytometry after Foxy-5 or vehicle treatment. […]
# HL60 cells = experiment: Cell growth assay, HL60 cells; format: cell-based, human; settings: Foxy-5 100 μM, 72 h
# Experimental: as §1
# Cells treated with Foxy or with vehicle were collected and cell number was evaluated by manual counting in monoculture and by microscopy with Image J software analysis in 2D culture.
# Next, we evaluated the proliferation rates since this process is modulated by ROS. We treated the cells with Foxy-5 (100 μM) or with vehicle (DMSO) during 72 hours, and then cell growth was analyzed by counting the cells in monoculture, manually, or by the Image J software analysis of the 2D cultures. […] Similar results were obtained in the 2D culture system using leukemia cells and HS-5 mesenchymal stromal cells.
# THP1 cells = experiment: Actin polymerization assay, THP1 cells; format: cell-based, human; settings: THP1, Foxy-5 100 μM 72 h
# Experimental: F-actin polymerization was analyzed in treated leukemic cell lines using AlexaFluor 633-labeled phalloidin (A22284, Invitrogen) before and after CXCL12 stimulation. The cells were stimulated with CXCL12 (300 ng/ml; Peprotech) in serum-free media at 37 °C for 30 and 120 seconds. The reaction was stopped by adding 3 volumes of paraformaldehyde (3.7%) at room temperature for 10 min, then washed and permeabilized on ice. Cells were stained with 633-phalloidin (2 mg/mL). Flow cytometric data were analyzed using a FACS flow cytometer (BD) followed by FlowJo software analysis. The F-actin content obtained were normalized calculating the ratio between each stimulated cells-mean fluorescence intensity (MFI) values and the nonstimulated cells MFI from the basal levels of the control cells and expressed as fold change.
# Therefore, we performed a flow cytometry analysis to evaluate whether Foxy-5 treatment would be able to disrupt actin polymerization. Leukemia cell lines were treated with Foxy-5 (100 μM) or vehicle during 72 hours, stimulated with CXCL12 (300 ng/ml) for 30 or 120 seconds, and stained with […] for detection of actin polymerization by flow cytometry. […] Thus, a significant reduction of actin polymerization was shown after Foxy-5 treatment when compared to untreated cells after 30 seconds of CXCL12 induction (P<. 001).
# [4] = NOD/SCID mice, U937 xenograft, Foxy-5 vs vehicle, after 9 days
# Experimental: For the xenograft mouse model, a concentration of 40 μg/μL of Foxy-5 was used. […] Mice were anesthetized with isoflurane (4%) and U937 cells (5,000,000 cells/mouse) were inoculated in the mouse dorsal region by subcutaneous injection. When the tumours reached 100 mm^3, the treatment was initiated. Foxy-5 was administered once every 2 days by intraperitoneal injection. The control group received equal amounts of vehicle solution. The tumour volumes were measured every 2 days and evaluated according to the formula: tumour volume (mm^3) ¼ (length×width^2)/2. After 9 days, the mice were sacrificed, the tumour excised and tumour dimensions (tumour volume (mm^3) and tumour weight (grams, g)) were evaluated.
substance,measurement,setting,value
Foxy-5: Formylated hexapeptide fragment of WNT5A: MDGCEL (SEQ. ID. NO. 3) with methionine in position 1 as N-formyl methionine; WNT5A-mimicking compound (For-MDGCEL; listed as Homo sapiens),cells in G0/G1 cell cycle phase (average),"K562 cells [1]; K562, co-cultured with HS5 stromal cells, Foxy-5 50 μM",65.32%
same,cells in G0/G1 cell cycle phase (average),"K562 cells [1]; K562, co-cultured with HS5 stromal cells, Foxy-5 100 μM",83.52%
same,cells in G0/G1 cell cycle phase (average),"K562 cells [1]; K562, monoculture, Foxy-5 50 μM",59.00%
same,cells in G0/G1 cell cycle phase (average),"K562 cells [1]; K562, monoculture, Foxy-5 100 μM",83.51%
same,"CXCL12-induced chemotaxis (migrated cells as percentage of the input, average)",K562 cells [2],1.52%
same,"autophagy (acidic granule formation, acridine orange, average)",K562 cells [3]; Foxy-5 50 μM,21.32 (range 20.46-22.28) MFI
same,"autophagy (acidic granule formation, acridine orange, average)",K562 cells [3]; Foxy-5 100 μM,19.80 (range 19.70-20.40) MFI
same,reduced cell growth compared to vehicle treated cells,"HL60 cells; HL60, 2D culture with HS-5 stromal cells",1.56 fold decrease
same,reduced cell growth compared to vehicle treated cells,"HL60 cells; HL60, monoculture",1.22 fold decrease
same,F-actin content following CXCL12 stimulation,THP1 cells; CXCL12 300 ng/ml for 30 seconds,3.56 fold increase
same,F-actin content following CXCL12 stimulation,THP1 cells; CXCL12 300 ng/ml for 120 seconds,1.59 fold
same,body weights of the xenograft mice,[4],did not vary significantly
